# According to a melting point compilation (Tetko et al.; mined from patent text by program, amines drawn as free bases though some values may be those of a salt):
row,melting point [°C],SMILES
1,133 to 136,CC(C)c1ccc(C(=O)Cc2cccs2)c(C(C)C)c1OS(N)(=O)=O
2,67 to 69,N#Cc1csc2ccccc12
3,123 to 127,COc1ccccc1[C@H](c1cccc2ccccc12)[C@@](C)(C#N)C(=O)N1CCC(c2cccc(C(F)(F)F)c2)CC1
4,124 to 126,CCOC(=O)Cc1ccc(-c2nc(COc3cc(C(=O)OC)on3)c(C)o2)cc1
5,128 to 130,COCCOc1nc(N)nc(-c2ccccc2)c1-c1ccc(=O)n(C(C)C)n1
6,248 to 251,COc1cc(OC)c(NC(=O)[C@H]2[C@H](c3ccc(S(N)(=O)=O)cc3)C2(C)C)cc1Cl (relative stereo)
7,122,CC(C)N(C(=O)c1cccc2c1CCc1cc(C(F)(F)F)ccc1S2)C(C)C
8,178 to 179,CNC(=O)c1cc2c(Oc3ccc(C(F)(F)F)cc3)cnc(Cl)c2s1
9,178,CC12CC(F)C3c4ccc(O)cc4CC(CCCCCBr)C3C1CCC2=O (stereo not drawn)
10,59 to 60,CCOC(=O)Cc1nc(-c2ccc(F)cc2)oc1C(C)C
11,120 to 122,CNC(=O)c1ncn2c(=O)n(CCCl)nnc12
12,113 to 116,COC(c1c(Cl)sc(Cl)c1Cl)C(C)N(OC)C(=O)c1cn(C)nc1C(F)F (stereo not drawn)
13,252 to 256,O=c1cc(Nc2cccc(-c3ccncc3)c2)c1=O
14,50 to 53,Cn1nc(C(F)(F)F)n(-c2ccc(C#Cc3ccccc3)cc2Cl)c1=S
15,250,O=C(Nc1cccc(NC(=O)c2ccc(O)cc2)c1)c1ccc(O)cc1
16,172 to 173,CC(C)(O)c1cccc(-c2ccc3nc(-c4ccc(Cl)cc4)c(Cl)n3c2)c1
17,173 to 175,CC(=O)NCC1CN(c2ccc(N3CCN(C(=O)COC(=O)c4cccnc4)CC3)c(F)c2)C(=O)O1 (stereo not drawn)
18,247 to 248,O=C(O)C1=Cc2cc(Cl)cc(C=NO)c2OC1C(F)(F)F (stereo not drawn)
19,197 to 199,O=C(Nc1nncs1)c1ccc2ccccc2c1
20,93 to 100,CC(=O)C(=CN(C)C)c1ccc(N2CCC(c3ccccc3)CC2)cc1
21,75 to 77,CCCCCCCCCCCC(=O)Nc1cc([N+](=O)[O-])ccc1F

row,melting point [°C],SMILES
1,208 to 210,CN(C(=O)OC(C)(C)C)c1cc(Oc2cc(C(C)(C)C)c(O)cc2C(C)(C)C)ccc1N
2,164 to 166,COc1ccc(C2=NN(Cc3ccc(CC(=O)O)cc3)C(=O)[C@H]3CCCC[C@@H]23)cc1OC (relative stereo)
3,209 to 210,Cc1cc2c(-c3ccccc3)c(CO)n(C)c(=O)c2cc1C
4,163,O=[N+]([O-])c1cc(Oc2ccc(Oc3cc([N+](=O)[O-])cc(C(F)(F)F)c3)cc2)cc(C(F)(F)F)c1
5,231 to 233,CC12CCC(O)CC1=CCC1C2CCC2(C)C(c3cncnc3)=CCC12 (stereo not drawn)
6,106 to 108,Cc1cccc(C)c1C(=O)OCC(N)=O
7,168 to 184,CCOc1ccccc1-c1ncc(C(=O)O)c(=O)[nH]1
8,164 to 167,N#Cc1c(S(=O)(=O)C(F)(F)C(F)Cl)[nH]c2ccccc12 (stereo not drawn)
9,137 to 138,COc1cc2c(cc1OC)CCCC(C(=O)N1CCNCC1)=C2
10,174 to 189,OC1CSC(Oc2cc(-c3cncnc3)cnc2Cl)C(O)C1O (stereo not drawn)
11,123 to 126,CC(=O)NC1Cc2ccc(O)cc2C1 (stereo not drawn)
12,158 to 159,CN(C(=O)Cn1c(-c2ccc(C(F)(F)F)cc2)nc2cccnc21)c1ccccc1
13,110 to 111,CCOC(=O)C=Cc1ccc(C(=O)Cc2ccccc2)cc1
14,97 to 98,Cc1oc(-c2ccccc2)nc1COc1ccc(CCc2oc(-c3ccccc3)nc2CC#N)cc1
15,118 to 120,CC(=O)N(C)c1cccc(-c2ccc(Cl)nn2)c1
16,109 to 111,CCn1cc([C@]2(c3cccc(-c4cccnc4F)c3)N=C(N)N(C)C2=O)cc1C(C)=O
17,191 to 192,CN(Cc1ccc(NC(=O)C2=Cc3cc(-c4ccc(Cl)cc4)ccc3OCC2)cc1)C1CCOCC1
18,101,CC1(C)CC(OC(=O)CCCCCCCCC(=O)OC2CC(C)(C)N(O)C(C)(C)C2)CC(C)(C)N1O
19,87 to 88.5,COc1ccc(CCNC(=O)CNc2ccc(C)cc2)cc1OC
20,102 to 104,CCCCCCCCCCOc1ccc(-c2ccc(C(C)=O)cc2)cc1
21,97.8 to 98.4,CC(=O)NC(Cc1ccccc1)C1CC(Cc2ccccc2)=NO1 (stereo not drawn)

row,melting point [°C],SMILES
1,154 to 155,COc1ccc(CCc2nnc(-c3ccc4[nH]nnc4c3)o2)cc1C(F)(F)F
2,170 to 172,CN(c1cccc2cc(C3=NCC(CC(=O)O)S3)[nH]c12)S(=O)(=O)c1ccccc1C(F)(F)F (stereo not drawn)
3,90,CCCCCCCCOc1ccc(C(=O)NN)cc1
4,112 to 113,Cc1cc(F)ccc1CCC(=O)O
5,95 to 100,CSC(=Nc1c(C(C)C)cc(Oc2ccc(Cl)cc2)nc1C(C)C)NC(C)(C)C
6,153,CCCNc1nc(N)nc2c1ncn2C1CC(F)C(CO)O1 (stereo not drawn)
7,69 to 71,CCOc1nc(NCc2ccco2)nc(Nc2cccc(CN3CCOCC3)c2)n1
8,140,O=C(CCOCc1ccccc1)Nc1ccc(C(=O)Nc2ccccc2[N+](=O)[O-])cc1
9,100 to 102,CC(CCOc1ccccc1NS(C)(=O)=O)N1CCC(OC(c2ccccc2)c2cccs2)CC1 (stereo not drawn)
10,48 to 50,CCC(O)(c1cncc(OCc2ccc3ccccc3c2)c1)c1nccs1 (stereo not drawn)
11,139 to 142,Cc1noc(NS(=O)(=O)c2ccc(S(=O)(=O)c3ccccc3)s2)c1Br
12,179 to 180,NC(=O)c1sc2nccc(OC3CCCCCC3)c2c1N
13,125 to 130,O=C(Nc1ccccc1)Nc1cccc(-c2ccc(C(=O)N3CCN4CCC3CC4)o2)c1
14,112,Cc1ccc(CC(C(=O)C(Cc2ccc(C)cc2C)N2C(=O)c3ccccc3C2=O)N2C(=O)c3ccccc3C2=O)c(C)c1 (stereo not drawn)
15,173 to 175,Nc1nnc(OCc2ccccc2)s1
16,198 to 199,CC(C)Cn1c(CN2C(=O)c3ccccc3C2=O)c(-c2ccc(F)cc2)c2cc(OCc3ccccc3)ccc2c1=O
17,> 250,Cc1c(C)n2nnnc2c2nc(C)n(CCNS(C)(=O)=O)c12
18,130 to 131,Cc1cccc2c1CCc1ccccc1C2(O)CCCN=Cc1ccccc1 (stereo not drawn)
19,75,C[C@H](O)c1ccccc1S(=O)(=O)c1ccc(/C=C/c2ccc(F)cc2)cc1
20,154 to 157,COC(=O)C[C@H](O)C[C@H](O)CCc1c(-c2ccc(F)cc2)c(-c2ccccc2)c(C(=O)Nc2ccccc2)n1C(C)C
21,219 to 220,CS(=O)(=O)c1ccc(-c2n[nH]c(C(F)(F)F)c2-c2ccc(F)cc2)cc1

row,SMILES,melting point [°C]
1,CCc1cc(NC(=O)N2CCC(C(=O)O)(c3ccccc3)CC2)c(OC)nc1C,173 to 174
2,Cc1cc(N2C(=O)N(CCCCCN3C(=O)N(c4ccc(C#N)c(C)c4)C(=O)C3(C)C)C(C)(C)C2=O)ccc1C#N,148 to 149
3,Cc1ccc2c3c(ccc2n1)OCC(CN1CCC(C#N)(c2ccccc2)CC1)O3 (stereo not drawn),185 to 187
4,NCCC1CCSc2[nH]c3ccccc3c21 (stereo not drawn),136 to 138
5,CCC(=O)Nc1ccc(-c2ccc(C(=O)N3CCN4CCC3CC4)o2)cc1,264
